The results in this text go back to paper PMC9555642 (PLoS ONE, 2022).

Broadly, the IC50 is the concentration needed to halve the response being measured.

Bounds are passed on as bounds.

Series [1] has as its target T1, HDAC6 (Homo sapiens, UniProt Q9UBN7).
T1 sequence (Q9UBN7 1-1215): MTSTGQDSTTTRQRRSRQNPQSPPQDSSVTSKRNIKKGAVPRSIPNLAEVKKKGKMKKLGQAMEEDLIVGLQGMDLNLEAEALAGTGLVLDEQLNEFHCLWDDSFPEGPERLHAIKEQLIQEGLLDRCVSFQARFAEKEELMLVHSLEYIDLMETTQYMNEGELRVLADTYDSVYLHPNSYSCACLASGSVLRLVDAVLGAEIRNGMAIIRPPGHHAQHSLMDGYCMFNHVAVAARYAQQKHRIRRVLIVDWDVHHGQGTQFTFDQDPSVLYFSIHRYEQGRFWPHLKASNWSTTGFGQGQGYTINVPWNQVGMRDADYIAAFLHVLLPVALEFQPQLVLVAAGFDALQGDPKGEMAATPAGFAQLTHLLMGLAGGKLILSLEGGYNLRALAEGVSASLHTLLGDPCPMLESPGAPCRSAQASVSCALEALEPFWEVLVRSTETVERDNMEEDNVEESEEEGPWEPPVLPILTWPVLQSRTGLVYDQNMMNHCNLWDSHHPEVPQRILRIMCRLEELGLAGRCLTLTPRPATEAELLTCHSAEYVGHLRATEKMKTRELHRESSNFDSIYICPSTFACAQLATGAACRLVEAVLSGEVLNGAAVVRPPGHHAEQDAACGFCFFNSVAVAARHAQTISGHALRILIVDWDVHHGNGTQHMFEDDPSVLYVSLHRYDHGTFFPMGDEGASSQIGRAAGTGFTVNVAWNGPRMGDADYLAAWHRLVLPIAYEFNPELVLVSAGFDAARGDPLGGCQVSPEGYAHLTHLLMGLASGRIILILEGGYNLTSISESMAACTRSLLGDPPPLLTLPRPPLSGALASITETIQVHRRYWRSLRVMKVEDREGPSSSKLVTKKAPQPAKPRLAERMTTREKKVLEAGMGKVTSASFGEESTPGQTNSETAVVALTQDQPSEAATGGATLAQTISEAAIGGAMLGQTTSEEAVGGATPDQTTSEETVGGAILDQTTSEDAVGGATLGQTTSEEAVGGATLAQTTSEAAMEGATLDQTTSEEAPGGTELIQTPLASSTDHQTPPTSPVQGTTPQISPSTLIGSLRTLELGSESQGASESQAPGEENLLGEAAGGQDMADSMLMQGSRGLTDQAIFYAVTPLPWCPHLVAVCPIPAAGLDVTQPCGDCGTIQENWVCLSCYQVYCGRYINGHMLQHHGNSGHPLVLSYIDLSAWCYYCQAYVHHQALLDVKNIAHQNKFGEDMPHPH
Put plainly: HDAC enzymatic activity (Eurofins). Format: biochemical. The conditions noted are these: Class IIB; ACY-1083 mean of two separate measurements, Ricolinostat and Tubastatin A one measurement.

The target of series [2] is T2, HDAC11 (Homo sapiens, UniProt Q96DB2).
T2 construct: purchased Eurofins Pharma Discovery Services 2663
T2 sequence (Q96DB2 1-347): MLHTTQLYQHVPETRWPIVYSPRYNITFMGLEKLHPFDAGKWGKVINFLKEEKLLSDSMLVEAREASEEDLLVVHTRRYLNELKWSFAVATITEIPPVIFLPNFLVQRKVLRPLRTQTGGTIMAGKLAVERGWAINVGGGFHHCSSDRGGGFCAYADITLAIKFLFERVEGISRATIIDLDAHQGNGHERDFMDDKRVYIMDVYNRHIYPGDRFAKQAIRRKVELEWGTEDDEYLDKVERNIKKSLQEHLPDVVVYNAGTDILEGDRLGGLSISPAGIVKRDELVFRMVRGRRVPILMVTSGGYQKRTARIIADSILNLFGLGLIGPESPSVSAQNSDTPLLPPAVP
Put plainly: HDAC enzymatic activity (Eurofins). The series is classed as biochemical. To be noted: Class IV; ACY-1083 mean of two separate measurements, Ricolinostat and Tubastatin A one measurement.

Series [3] has as its system COPD HBEC ALI cultures. Put plainly: Western blot of membrane protein from ALI cell cultures. Format: cell-based, human. The conditions noted are these: 10 μM, TNF-challenged, four COPD donors, trend observed. How it is done:
For extraction of membrane and cytosol proteins the cells were lysed according to the Mem-PER Plus Membrane Protein Kit protocol (#89842, ThermoFisher Scientific). The supernatants were kept frozen in −80°C until total protein quantification. Quantification of total protein in the lysates was done using Pierce BCA Protein Assay Kit (#23227, Thermo Scientific) following the manufacturer´s instructions. Lysates containing 8 μg total protein were mixed with NuPAGE LDS Sample buffer 4x (NP007, Invitrogen), NuPAGE Sample Reducing Agent 10x (NP004, Invitrogen) and deionized water and then heated for ten minutes at 70°C. The samples were loaded onto NuPAGE 4–12% Bis-Tris Gels (NP0335, Invitrogen) and run at 120V for 100 minutes in NuPAGE MOPS SDS Running buffer (NP0001, Invitrogen). The proteins were transferred to nitrocellulose membranes (LC2001, Invitrogen) at 35 mA overnight using NuPAGE Transfer buffer (NP0006, Invitrogen) supplemented with 20% methanol. The membranes were stained with Revert Total Protein Stain (926–11011, LI-COR Biosciences) for five minutes, washed and then imaged in the 700 nm channel using Odyssey CLX imaging system (LI-COR Biosciences). To correct for variation in loading the total signal intensity of all proteins in each lane were used for normalization. An inter-membrane control sample was loaded to all gels to assure there were no differences due to methodology between the blots. The stain was removed with Revert Destaining Solution (926–11013, LI-COR Biosciences) and the membranes were blocked in Intercept (TBS) Blocking Buffer (927–60001, LI-COR Biosciences) for one hour on a shaker. […] After a final wash, three times for ten minutes in TBS-T, the fluorescent signals were detected using the Odyssey CLX imaging system and the signals were analysed using Image Studio software (v4.0, LI-COR Biosciences).
For orientation: In western blotting, separated proteins are transferred to a membrane and probed.

Series [4] has as its target T3, IKs (Homo sapiens, UniProt P51787).
T3 construct: expressed in transfected cells; host or cells: Chinese hamster ovary K1 cell line
Put plainly: Cardiovascular ion channel panel, SyncroPatch 384PE patch clamp. Format: cell-based. The conditions noted are these: CHO K1 cell line, room temperature, 6 point cumulative assay. For orientation: The patch-clamp technique gives a direct electrical read-out from membranes.

Series [5] in a line: Plasma protein binding, human blood plasma. Format: in vitro ADME. How it is done:
Plasma protein binding analysis was performed as reported previously using human blood plasma samples [52].

Series [6] has as its system Haemophilus influenzae. Put plainly: Pilot test of bactericidal effect, bacteria in media. Format: cell-based. To be noted: bacteria suspended in media incubated for one hour with ACY-1083, pilot experiment.

In series [1], ACY-1083 came in with an IC50 below 0.01 µM. The IC50 in series [2] was determined as 18.2 µM. For the same substance, in series [3], the “E-cadherin level in membrane fraction” value is “not significantly higher”, the “Occludin level in membrane fraction” value is given as “not significantly higher” and the “β-catenin level in membrane fraction” value is “not significantly higher”. Moreover, the “activity on IKs” value in series [4] was above 30 µM. Further, in series [5], the free fraction came out at 23% and the “stability in human plasma” value was “stable”. Further, the “bactericidal effect (bacterial counts)” value in series [6] is “no effect on bacterial counts”.
